Data taken from patent US11254686B1 (Corvus Pharmaceuticals, Inc., priority 2017, dated 2022).
pIC50: −log10 of the molar value. Where “and” joins values, the source holds several entries; their conditions need not be identical. Equal entries are not always repeated.

Experiments:
Format in all cases: biochemical
adenosine A1 receptor = adenosine A1 receptor (Homo sapiens (Human), UniProt P30542); assay: Adenosine receptor activity assay (Table 1), A1 cAMP
adenosine A3 receptor = adenosine A3 receptor (Homo sapiens (Human), UniProt P0DMS8); assay: Adenosine receptor activity assay (Table 1), A3 cAMP
adenosine A2B receptor = adenosine A2B receptor (Homo sapiens (Human), UniProt P29275); assay: Adenosine receptor activity assay (Table 1), A2B activity; conditions: for Ratio: A2A activity to the A2B activity, A2A/A2B; for pIC50: cAMP, read-out: Ave A2B cAMP IC50
adenosine A2A receptor = adenosine A2A receptor (Homo sapiens (Human), UniProt P29274); assay: Adenosine receptor activity assay (Table 1), A2A activity; conditions: cAMP; read-out: Ave A2A cAMP IC50
Sequence of adenosine A2A receptor (P29274 whole entry): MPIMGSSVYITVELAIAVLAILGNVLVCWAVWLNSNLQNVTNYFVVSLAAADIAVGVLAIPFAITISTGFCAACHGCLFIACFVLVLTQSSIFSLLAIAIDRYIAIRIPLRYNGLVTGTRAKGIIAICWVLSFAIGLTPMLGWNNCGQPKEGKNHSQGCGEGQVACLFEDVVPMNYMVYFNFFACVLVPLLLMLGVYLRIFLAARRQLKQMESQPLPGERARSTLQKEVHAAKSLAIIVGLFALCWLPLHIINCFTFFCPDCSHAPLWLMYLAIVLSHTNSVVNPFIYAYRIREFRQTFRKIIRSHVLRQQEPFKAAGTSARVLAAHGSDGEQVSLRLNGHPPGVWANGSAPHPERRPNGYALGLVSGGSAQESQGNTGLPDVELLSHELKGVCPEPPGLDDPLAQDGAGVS

Sequence of adenosine A1 receptor (P30542 whole entry): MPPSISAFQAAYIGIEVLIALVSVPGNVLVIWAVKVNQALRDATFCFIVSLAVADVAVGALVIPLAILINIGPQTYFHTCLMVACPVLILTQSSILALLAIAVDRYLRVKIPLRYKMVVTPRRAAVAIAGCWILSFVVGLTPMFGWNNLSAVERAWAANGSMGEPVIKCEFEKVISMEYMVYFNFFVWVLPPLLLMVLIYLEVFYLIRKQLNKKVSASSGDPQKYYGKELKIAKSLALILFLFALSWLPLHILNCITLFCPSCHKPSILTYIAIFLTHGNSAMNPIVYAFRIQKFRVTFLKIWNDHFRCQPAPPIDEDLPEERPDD
Sequence of adenosine A3 receptor (P0DMS8 whole entry): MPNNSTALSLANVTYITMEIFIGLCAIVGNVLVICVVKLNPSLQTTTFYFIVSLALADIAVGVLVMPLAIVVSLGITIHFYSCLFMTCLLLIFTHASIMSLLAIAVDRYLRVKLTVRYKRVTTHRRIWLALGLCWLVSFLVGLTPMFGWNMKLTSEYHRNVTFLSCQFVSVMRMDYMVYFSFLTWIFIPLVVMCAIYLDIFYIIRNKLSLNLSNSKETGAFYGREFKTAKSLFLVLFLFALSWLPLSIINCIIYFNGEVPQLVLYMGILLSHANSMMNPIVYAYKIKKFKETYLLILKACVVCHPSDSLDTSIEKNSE
Sequence of adenosine A2B receptor (P29275 whole entry): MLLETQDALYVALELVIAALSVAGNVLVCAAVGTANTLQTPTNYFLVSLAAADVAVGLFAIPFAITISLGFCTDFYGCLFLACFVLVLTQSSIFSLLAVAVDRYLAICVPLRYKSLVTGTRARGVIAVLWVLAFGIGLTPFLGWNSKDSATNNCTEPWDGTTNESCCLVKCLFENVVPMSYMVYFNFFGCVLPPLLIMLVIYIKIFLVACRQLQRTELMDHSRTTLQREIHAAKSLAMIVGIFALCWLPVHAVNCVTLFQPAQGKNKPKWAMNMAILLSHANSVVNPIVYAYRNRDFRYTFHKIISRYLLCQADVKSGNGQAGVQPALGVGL

pIC50 (adenosine A1 receptor) | pIC50 (adenosine A3 receptor) | Ratio (adenosine A2B receptor) | pIC50 (adenosine A2B receptor) | pIC50 (adenosine A2A receptor) | Compound
< 6.30 | 6.30 to 7.00 | 0.95 | > 8.00 | > 8.00 | C[C@H](Nc1nc(C(=O)N2CC(NC(=O)NC3CCC3)C2)c2sccc2n1)c1cncc(F)c1 [Example Z623, (S)-1-Cyclobutyl-3-(1-(2-((1-(5-fluoropyridin-3-yl)ethyl)amino)thieno[3,2-d]pyrimidine-4-carbonyl)azetidin-3-yl)urea]
< 6.30 | 6.30 to 7.00 | 0.15 and 0.25 | 7.30 to 8.00 | > 8.00 | C[C@H](Nc1nc(C(=O)N2CC(NC(=O)C3(C)CCC3)C2)c2sccc2n1)c1cncc(F)c1 [Example Z627, (S)—N-(1-(2-((1-(5-Fluoropyridin-3-yl)ethyl)amino)thieno[3,2-d]pyrimidine-4-carbonyl)azetidin-3-yl)-1-methylcyclobutane-1-carboxamide]
< 6.30 | 7.30 to 8.00 | 0.33 | 7.30 to 8.00 | > 8.00 | CCC(CC)NC(=O)NC1CN(C(=O)c2nc(N[C@@H](C)c3cncc(F)c3)nc3ccsc23)C1 [Example Z630, (S)-1-(1-(2-((1-(5-Fluoropyridin-3-yl)ethyl)amino)thieno[3,2-d]pyrimidine-4-carbonyl)azetidin-3-yl)-3-(pentan-3-yl)urea]
< 6.30 | < 6.30 | 3.72 | 7.30 to 8.00 | 7.00 to 7.30 | C[C@H](Nc1nc(C(=O)N2CC(NC(=O)C3(C#N)CC3)C2)c2sccc2n1)c1cncc(F)c1 [Example Z636, (S)-1-Cyano-N-(1-(2-((1-(5-fluoropyridin-3-yl)ethyl)amino)thieno[3,2-d]pyrimidine-4-carbonyl)azetidin-3-yl)cyclopropane-1-carboxamide]
< 6.30 | 7.00 to 7.30 | 0.52 | 7.30 to 8.00 | > 8.00 | C[C@H](Nc1nc(C(=O)N2CC(NC(=O)C3CC(C)(C)C3)C2)c2sccc2n1)c1cncc(F)c1 [Example Z638, (S)—N-(1-(2-((1-(5-Fluoropyridin-3-yl)ethyl)amino)thieno[3,2-d]pyrimidine-4-carbonyl)azetidin-3-yl)-3,3-dimethylcyclobutane-1-carboxamide]
< 6.30 | 6.30 to 7.00 | 0.98 | 7.30 to 8.00 | 7.30 to 8.00 | C[C@H](Nc1nc(C(=O)N2CC(NC(=O)[C@H]3CC[C@H](C)CC3)C2)c2sccc2n1)c1cncc(F)c1 [Example Z639, Trans-N-(1-(2-(((S)-1-(5-fluoropyridin-3-yl)ethyl)amino)thieno[3,2-d]pyrimidine-4-carbonyl)azetidin-3-yl)-4-methylcyclohexane-1-carboxamide]
< 6.30 | 6.30 to 7.00 | 1.24 | 7.30 to 8.00 | 7.30 to 8.00 | C[C@H](Nc1nc(C(=O)N2CC(NC(=O)C3CCC(F)(F)CC3)C2)c2sccc2n1)c1cncc(F)c1 [Example Z640, (S)-4,4-Difluoro-N-(1-(2-((1-(5-fluoropyridin-3-yl)ethyl)amino)thieno[3,2-d]pyrimidine-4-carbonyl)azetidin-3-yl)cyclohexane-1-carboxamide]
< 6.30 | 6.30 to 7.00 | 0.19 | 7.30 to 8.00 | > 8.00 | C[C@H](Nc1nc(C(=O)N2CC(NC(=O)C3(C(F)(F)F)CCC3)C2)c2sccc2n1)c1cncc(F)c1 [Example Z643, (S)—N-(1-(2-((1-(5-Fluoropyridin-3-yl)ethyl)amino)thieno[3,2-d]pyrimidine-4-carbonyl)azetidin-3-yl)-1-(trifluoromethyl)cyclobutane-1-carboxamide]

Second part, the molecule before the results:

Compound | pIC50 (adenosine A1 receptor) | pIC50 (adenosine A3 receptor) | Ratio (adenosine A2B receptor) | pIC50 (adenosine A2B receptor) | pIC50 (adenosine A2A receptor)
Cc1csc2c(C(=O)N3CC(NC(=O)c4cccc(Cl)c4)C3)nc(N[C@@H](C)c3cncc(F)c3)nc12 [Example Z625, (S)-3-Chloro-N-(1-(2-((1-(5-fluoropyridin-3-yl)ethyl)amino)-7-methylthieno[3,2-d]pyrimidine-4-carbonyl)azetidin-3-yl)benzamide] | < 6.30 | < 6.30 | 0.68 | 7.30 to 8.00 | 7.30 to 8.00
Cc1cccc(C(=O)NC2CN(C(=O)c3nc(N[C@@H](C)c4cncc(F)c4)nc4ccsc34)C2)c1 [Example Z626, (S)—N-(1-(2-((1-(5-Fluoropyridin-3-yl)ethyl)amino)thieno[3,2-d]pyrimidine-4-carbonyl)azetidin-3-yl)-3-methylbenzamide] | < 6.30 | 6.30 to 7.00 | 0.85 | 7.30 to 8.00 | > 8.00
C[C@H](Nc1nc(C(=O)N2CC[C@@H](C(=O)NOC3CCCC3)C2)c2sccc2n1)c1cncc(F)c1 [Example Z628, (R)—N-(Cyclopentyloxy)-1-(2-(((S)-1-(5-fluoropyridin-3-yl)ethyl)amino)thieno[3,2-d]pyrimidine-4-carbonyl)pyrrolidine-3-carboxamide] | < 6.30 | 6.30 to 7.00 | 1.25 | > 8.00 | > 8.00
C[C@H](Nc1nc(C(=O)N2CC(NC(=O)c3ccc(C(F)(F)F)o3)C2)c2sccc2n1)c1cncc(F)c1 [Example Z629, (S)—N-(1-(2-((1-(5-Fluoropyridin-3-yl)ethyl)amino)thieno[3,2-d]pyrimidine-4-carbonyl)azetidin-3-yl)-5-(trifluoromethyl)furan-2-carboxamide] | < 6.30 | < 6.30 | 2.40 | 7.30 to 8.00 | 7.30 to 8.00
C[C@H](Nc1nc(C(=O)N2CC(NC(=O)C34CC5CC(CC(C5)C3)C4)C2)c2sccc2n1)c1cncc(F)c1 [Example Z631, (3S,5S,7S)—N-(1-(2-(((S)-1-(5-Fluoropyridin-3-yl)ethyl)amino)thieno[3,2-d]pyrimidine-4-carbonyl)azetidin-3-yl)adamantane-1-carboxamide] | < 6.30 | 7.30 to 8.00 | 0.09 | 7.30 to 8.00 | > 8.00
Cc1cc2nc(N[C@@H](C)c3cncc(F)c3)nc(C(=O)N3CC(NC(=O)c4ccc(C(F)(F)F)o4)C3)c2s1 [Example Z632, (S)—N-(1-(2-((1-(5-Fluoropyridin-3-yl)ethyl)amino)-6-methylthieno[3,2-d]pyrimidine-4-carbonyl)azetidin-3-yl)-5-(trifluoromethyl)furan-2-carboxamide] | < 6.30 | 6.30 to 7.00 | 1.12 | > 8.00 | > 8.00
C[C@H](Nc1nc(C(=O)N2CC(NC(=O)c3cccc(C(F)(F)F)c3)C2)c2sccc2n1)c1cncc(F)c1 [Example Z633, (S)—N-(1-(2-((1-(5-Fluoropyridin-3-yl)ethyl)amino)thieno[3,2-d]pyrimidine-4-carbonyl)azetidin-3-yl)-3-(trifluoromethyl)benzamide] | < 6.30 | 6.30 to 7.00 | 1.62 | > 8.00 | 7.30 to 8.00
C[C@H](Nc1nc(C(=O)N2CC(NC(=O)Nc3ccccc3)C2)c2sccc2n1)c1cncc(F)c1 [Example Z634, (S)-1-(1-(2-((1-(5-Fluoropyridin-3-yl)ethyl)amino)thieno[3,2-d]pyrimidine-4-carbonyl)azetidin-3-yl)-3-phenylurea] | < 6.30 | 6.30 to 7.00 | 2.22 | > 8.00 | 7.30 to 8.00
COc1cccc(C(=O)NC2CN(C(=O)c3nc(N[C@@H](C)c4cncc(F)c4)nc4ccsc34)C2)c1 [Example Z635, (S)—N-(1-(2-((1-(5-Fluoropyridin-3-yl)ethyl)amino)thieno[3,2-d]pyrimidine-4-carbonyl)azetidin-3-yl)-3-methoxybenzamide] | < 6.30 | 6.30 to 7.00 | 2.06 | 7.30 to 8.00 | 7.30 to 8.00
C[C@H](Nc1nc(C(=O)N2CC(NC(=O)C34CCC(CC3)CC4)C2)c2sccc2n1)c1cncc(F)c1 [Example Z637, (S)—N-(1-(2-((1-(5-Fluoropyridin-3-yl)ethyl)amino)thieno[3,2-d]pyrimidine-4-carbonyl)azetidin-3-yl)bicyclo[2.2.2]octane-1-carboxamide] | < 6.30 | 7.30 to 8.00 | 0.13 | 7.30 to 8.00 | > 8.00
C[C@H](Nc1nc(C(=O)N2CC(NC(=O)C3(C)CC3)C2)c2sccc2n1)c1cncc(Cl)c1 [Example Z641, (S)—N-(1-(2-((1-(5-Chloropyridin-3-yl)ethyl)amino)thieno[3,2-d]pyrimidine-4-carbonyl)azetidin-3-yl)-1-methylcyclopropane-1-carboxamide] | < 6.30 | 6.30 to 7.00 | 1.81 | > 8.00 | 7.30 to 8.00
C[C@H](Nc1nc(C(=O)N2CC(NC(=O)C(C)(C)C)C2)c2sccc2n1)c1cncc(Cl)c1 [Example Z642, (S)—N-(1-(2-((1-(5-Chloropyridin-3-yl)ethyl)amino)thieno[3,2-d]pyrimidine-4-carbonyl)azetidin-3-yl)pivalamide] | < 6.30 | 6.30 to 7.00 | 0.57 | 7.30 to 8.00 | > 8.00
C[C@H](Nc1nc(C(=O)N2CC(NC(=O)C3(C)CCC3)C2)c2sccc2n1)c1cncc(Cl)c1 [Example Z644, (S)—N-(1-(2-((1-(5-Chloropyridin-3-yl)ethyl)amino)thieno[3,2-d]pyrimidine-4-carbonyl)azetidin-3-yl)-1-methylcyclobutane-1-carboxamide] | < 6.30 | 6.30 to 7.00 | 0.59 | 7.30 to 8.00 | > 8.00
C[C@H](Nc1nc(C(=O)N2CC(NC(=O)c3ccc(-c4ccccc4)cc3)C2)c2sccc2n1)c1cncc(F)c1 [Example Z645, (S)—N-(1-(2-((1-(5-Fluoropyridin-3-yl)ethyl)amino)thieno[3,2-d]pyrimidine-4-carbonyl)azetidin-3-yl)-[1,1′-biphenyl]-4-carboxamide] | < 6.30 | 7.00 to 7.30 | 0.48 | 7.00 to 7.30 | 7.30 to 8.00
